Tests used:
[1] = target: Acetylcholinesterase (Electrophorus electricus) (UniProt O42275); conditions: at 2 mg/mL
Description: Inhibition of electric eel AChE at 2 mg/ml by Ellman's method

[2] = target: Cholinesterase (Equus caballus) (UniProt P81908); conditions: at 2 mg/mL
Sequence of Cholinesterase (Equus caballus) (P81908 whole entry): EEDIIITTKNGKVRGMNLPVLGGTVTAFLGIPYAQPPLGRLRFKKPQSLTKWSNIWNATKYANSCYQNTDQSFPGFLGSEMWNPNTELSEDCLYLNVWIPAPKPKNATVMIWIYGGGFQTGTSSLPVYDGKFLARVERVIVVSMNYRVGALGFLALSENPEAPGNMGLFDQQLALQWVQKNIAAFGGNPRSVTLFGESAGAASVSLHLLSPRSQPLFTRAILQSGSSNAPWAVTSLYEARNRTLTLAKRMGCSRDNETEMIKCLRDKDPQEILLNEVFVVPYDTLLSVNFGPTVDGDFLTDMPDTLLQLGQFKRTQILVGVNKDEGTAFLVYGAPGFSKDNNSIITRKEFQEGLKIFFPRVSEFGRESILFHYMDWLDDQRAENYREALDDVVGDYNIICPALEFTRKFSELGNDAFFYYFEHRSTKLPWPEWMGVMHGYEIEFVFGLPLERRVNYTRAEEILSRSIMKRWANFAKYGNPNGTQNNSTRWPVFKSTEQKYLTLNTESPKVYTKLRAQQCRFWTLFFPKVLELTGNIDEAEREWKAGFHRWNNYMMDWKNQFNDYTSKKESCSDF
Description: Inhibition of horse BChE at 2 mg/ml by Ellman's method

Sequence of Acetylcholinesterase (Electrophorus electricus) (O42275 24-633 limits assumed): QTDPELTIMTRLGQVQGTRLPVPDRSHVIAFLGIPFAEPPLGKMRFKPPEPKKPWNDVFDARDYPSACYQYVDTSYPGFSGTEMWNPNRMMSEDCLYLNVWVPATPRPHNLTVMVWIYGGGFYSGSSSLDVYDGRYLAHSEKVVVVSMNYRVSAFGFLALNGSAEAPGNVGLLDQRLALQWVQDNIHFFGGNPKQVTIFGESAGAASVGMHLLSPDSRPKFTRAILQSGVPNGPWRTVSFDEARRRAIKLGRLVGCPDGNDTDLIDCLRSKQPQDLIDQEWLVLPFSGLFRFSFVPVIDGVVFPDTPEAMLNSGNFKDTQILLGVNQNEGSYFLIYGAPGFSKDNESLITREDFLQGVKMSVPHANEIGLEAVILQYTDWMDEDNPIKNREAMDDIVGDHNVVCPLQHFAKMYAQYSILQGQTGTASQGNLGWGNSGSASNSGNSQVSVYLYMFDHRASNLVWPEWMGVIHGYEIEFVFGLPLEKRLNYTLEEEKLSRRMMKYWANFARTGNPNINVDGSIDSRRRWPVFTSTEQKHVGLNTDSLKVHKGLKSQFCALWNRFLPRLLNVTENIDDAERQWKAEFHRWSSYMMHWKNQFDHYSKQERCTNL

Compound: N[C@@H](Cn1ccc(=O)c(O)c1)C(=O)O
- inhibition [1]: 7.74%
- inhibition [2]: 11.2%

Compound: COc1ccc([C@@H]2CC(=O)c3c(O)cc(O)cc3O2)cc1O
- inhibition [1]: -4.02%
- inhibition [2]: -8.75%

Compound: COC(=O)C1=CCCN(C)C1
- inhibition [1]: 16.9%
- inhibition [2]: 0.29%

Compound: COc1cc2c(cc1OC)[C@@H]1C(=O)c3ccc4c(c3O[C@@H]1CO2)C=CC(C)(C)O4
- inhibition [1]: -8.14%
- inhibition [2]: 2.21%

Compound: O=c1cc(-c2ccc(O)cc2)oc2cc(O)c([C@@H]3O[C@H](CO)[C@@H](O)[C@H](O)[C@H]3O)c(O)c12
- inhibition [1]: 20.7%
- inhibition [2]: 1.98%

Compound: CN1[C@@H]2CC[C@H]1C[C@@H](OC(=O)[C@H](CO)c1ccccc1)C2
- inhibition [1]: 15.5%
- inhibition [2]: 3.5%

Compound: C[C@@H]1O[C@@H](O[C@H]2C(Oc3cc(O)c4c(=O)c(O)c(-c5ccc(O)cc5)oc4c3)O[C@H](CO)[C@@H](O)[C@@H]2O)[C@H](O)[C@H](O)[C@H]1O (some centres not stated)
- inhibition [1]: 24.5%
- inhibition [2]: -4.78%

Compound: COc1c2c3c4c(c(OC)c(=O)c5c(O)cc(OC)c(c6c(OC)cc(O)c(c1=O)c63)c54)[C@@H](C(C)=O)[C@@](C)(O)C2 (relative stereo)
- inhibition [1]: 5.56%
- inhibition [2]: 1.53%

Compound: C=C(C)[C@@H]1[C@H]2OC(=O)[C@@H]1[C@]1(O)C[C@H]3O[C@]34C(=O)O[C@H]2[C@]14C
- inhibition [1]: 11.4%
- inhibition [2]: -3.55%

Compound: C[C@@H]1O[C@@H](O[C@@H]2[C@@H](O)[C@H](O)[C@@H](CO)O[C@H]2c2c(O)cc(O)c3c(=O)cc(-c4ccc(O)cc4)oc23)[C@H](O)[C@H](O)[C@H]1O
- inhibition [1]: 25.9%
- inhibition [2]: -3.3%

Compound: CC1=C2C(=O)[C@H]3[C@@H](CC=C4C[C@@H](O)CC[C@@]43C)[C@@H]2CC[C@]12O[C@@H]1C[C@H](C)CN[C@H]1[C@H]2C
- inhibition [1]: -9.1%
- inhibition [2]: 5.64%

Compound: CCOC(=O)Oc1c(OC)cc(C(=O)O[C@@H]2C[C@@H]3CN4CCc5c([nH]c6cc(OC)ccc56)[C@H]4C[C@@H]3[C@H](C(=O)OC)[C@H]2OC)cc1OC
- inhibition [1]: -6.1%
- inhibition [2]: -6.04%

Compound: CCCCC[C@H](O)/C=C/[C@H]1C=CC(=O)[C@@H]1CCCCCCC(=O)O
- inhibition [1]: 15.3%
- inhibition [2]: -1.82%

Compound: COc1cc(O)c(C(=O)/C=C/c2ccccc2)c(OC)c1
- inhibition [1]: 27.1%
- inhibition [2]: 4.56%

Compound: COc1cc(-c2oc3cc(O)cc(O)c3c(=O)c2O[C@@H]2O[C@H](CO)[C@@H](O)[C@H](O)[C@H]2O)ccc1O
- inhibition [1]: 30.6%
- inhibition [2]: 1.08%

Compound: C=C1C(=O)O[C@@H]2C3O[C@]3(C)CC/C=C(\C)CC[C@@H]12 (some centres not stated)
- inhibition [1]: -5.29%
- inhibition [2]: 14%

Compound: CC(=O)O[C@H]1[C@H]2[C@@H](OC(=O)Cc3ccccc3)[C@@H](C)C[C@]2(OC(C)=O)C(=O)/C(C)=C/[C@@H]2[C@H](CC[C@@]13CO3)C2(C)C
- inhibition [1]: -2.46%
- inhibition [2]: -5.46%

Compound: COc1c2ccoc2cc2oc(C)cc(=O)c12
- inhibition [1]: 7%
- inhibition [2]: 16.2%

Compound: CO[C@H]1/C=C/O[C@@]2(C)Oc3c(C)c(O)c4c(O)c(c(/C=N/N5CCN(C)CC5)c(O)c4c3C2=O)NC(=O)/C(C)=C\C=C\[C@H](C)[C@H](O)[C@@H](C)[C@@H](O)[C@@H](C)[C@H](OC(C)=O)[C@@H]1C
- inhibition [1]: 16.2%
- inhibition [2]: 1.88%

Compound: C[C@H]1[C@H](C)CC[C@]2(C(=O)O)CC[C@]3(C)C(=CC[C@@H]4[C@@]5(C)C[C@@H](O)[C@H](O)[C@@](C)(CO)[C@@H]5[C@H](O)C[C@]43C)[C@H]12
- inhibition [1]: -1.33%
- inhibition [2]: -7.93%

Compound: COc1cc2c(c(OC)c1OC)-c1c(cc3c(c1OC)OCO3)C[C@H](C)[C@H](C)C2
- inhibition [1]: -4.27%
- inhibition [2]: 12.7%

Compound: CC1=C(/C=C/C(C)=C/C=C/C(C)=C\C(=O)O)C(C)(C)CCC1
- inhibition [1]: 11.5%
- inhibition [2]: 0.91%

Compound: Cc1cc(O)c2c(=O)c3c(O)cc(O)c4c5c(O)cc(O)c6c(=O)c7c(O)cc(C)c8c1c2c(c34)c(c78)c65
- inhibition [1]: -7.15%
- inhibition [2]: 14.3%

Compound: C/C=C1\CN2CC[C@]34C(=C(CC=O)[C@H]1C[C@H]23)Nc1ccccc14
- inhibition [1]: 21.1%
- inhibition [2]: 12%

Compound: Oc1cc(O)c2c(c1)O[C@H](c1ccc(O)c(O)c1)[C@@H](O)C2
- inhibition [1]: 7.03%
- inhibition [2]: -5.96%

Compound: COc1ccc2[nH]cc(CCNC(C)=O)c2c1
- inhibition [1]: 15.5%
- inhibition [2]: 1.01%

Compound: CC(C)(O)CC[C@@H](O)[C@](C)(O)[C@H]1CC[C@@]2(O)C3=CC(=O)[C@@H]4C[C@@H](O)[C@@H](O)C[C@]4(C)[C@H]3CC[C@]12C
- inhibition [1]: 3.26%
- inhibition [2]: -3.01%

Compound: CCN1C[C@]2(C)CC[C@H](OC)[C@@]34C1[C@]1(OCO[C@@]15C[C@H](OC)[C@H]1C[C@]3(O)[C@@H]5[C@H]1OC)[C@@H](OC(C)=O)[C@H]24
- inhibition [1]: 29.5%
- inhibition [2]: 0.02%

Compound: CN(C)c1ccc(O)c2c1C[C@H]1C[C@H]3[C@H](N(C)C)C(O)=C(C(N)=O)C(=O)[C@@]3(O)C(O)=C1C2=O
- inhibition [1]: -0.24%
- inhibition [2]: -8.62%

Compound: C[N+]1(C)CCC[C@H]1C(=O)[O-]
- inhibition [1]: -9.74%
- inhibition [2]: -3.98%

Compound: C=C(C)[C@H]1Cc2c(ccc3c2O[C@@H]2COc4cc(OC)c(OC)cc4[C@@H]2C3=O)O1
- inhibition [1]: 16.4%
- inhibition [2]: 6.43%

Compound: C=C[C@@](C)(O)CC[C@H]1C(=C)CC[C@H]2C(C)(C)CCC[C@]12C
- inhibition [1]: 21.8%
- inhibition [2]: 0.47%

Compound: CC[C@]12CCCN3CCc4c(n(c5ccccc45)C(=O)C1)[C@@H]32
- inhibition [1]: 12.1%
- inhibition [2]: 0.04%

Compound: COC1=CC(=O)C[C@@H](C)[C@]12Oc1c(Cl)c(OC)cc(OC)c1C2=O
- inhibition [1]: -8.73%
- inhibition [2]: -4.49%

Compound: CC(=O)O[C@H]1C(=O)[C@@]2(C)[C@H]([C@H](OC(=O)c3ccccc3)[C@]3(O)C[C@H](O)C(C)=C1C3(C)C)[C@]1(OC(C)=O)CO[C@@H]1C[C@@H]2O
- inhibition [1]: 27.8%
- inhibition [2]: 5.3%

Compound: CN(C)Cc1c[nH]c2ccccc12
- inhibition [1]: 15.3%
- inhibition [2]: 10.6%

Compound: O=C(O)C1=C[C@@H](O)[C@@H](O)[C@H](O)C1
- inhibition [1]: -8.33%
- inhibition [2]: -4.96%

Compound: COc1c2occc2c(OC)c2c(=O)cc(C)oc12
- inhibition [1]: 7.57%
- inhibition [2]: 3.3%

Compound: COc1c2c(cc3c1OCO3)CCN(C)C2
- inhibition [1]: 9.58%
- inhibition [2]: 29.9%

Compound: c1cc2c(cc1[C@H]1OC[C@@H]3[C@H]1CO[C@H]3c1ccc3c(c1)OCO3)OCO2
- inhibition [1]: 4.7%
- inhibition [2]: -3.5%

Compound: O=C(O)/C=C/c1ccc(O)c(O)c1
- inhibition [1]: 2.2%
- inhibition [2]: 0.67%

Compound: C/C=C(/C)C(=O)O[C@H]1CC[C@@]2(C)[C@@H]3CC[C@H]4[C@]5(O)C[C@H](O)[C@@]6(O)[C@@H](CN7C[C@@H](C)CC[C@H]7[C@@]6(C)O)[C@]5(O)C[C@@]42O[C@]13O
- inhibition [1]: -3.72%
- inhibition [2]: 6.44%

Compound: O=c1c(O)c(-c2ccc(O)c(O)c2)oc2cc(O)ccc12
- inhibition [1]: 27.5%
- inhibition [2]: 2.06%

Compound: COC(=O)[C@H]1[C@H]2C[C@H]3c4[nH]c5ccccc5c4CCN3C[C@@H]2CC[C@@H]1O
- inhibition [1]: 15.8%
- inhibition [2]: 6.02%

Compound: O=c1c(-c2ccc(O)cc2)coc2cc(O[C@@H]3O[C@H](CO)[C@@H](O)[C@H](O)[C@H]3O)ccc12
- inhibition [1]: 17.6%
- inhibition [2]: -0.76%

Compound: CC(=O)N[C@H]1[C@@H](O[C@@H]2O[C@H](C[C@@H](O)[C@@H]3O[C@H](n4ccc(=O)[nH]c4=O)[C@@H](O)[C@H]3O)[C@H](O)[C@H](O)[C@H]2NC(=O)/C=C/CCCCCCCCCCC(C)C)O[C@H](CO)[C@@H](O)[C@@H]1O
- inhibition [1]: 14.2%
- inhibition [2]: 1.57%

— ChEMBL document CHEMBL2163249, “Exploration of natural compounds as sources of new bifunctional scaffolds targeting cholinesterases and beta amyloid aggregation: the case of chelerythrine” (Bioorg Med Chem, 2012)
